Data published in patent US12679849B2, “Macrocyclic compounds as STING agonists” (LUPIN LIMITED, priority 2019, dated 2026).

biological target: T1, Human STING (Homo sapiens, UniProt Q86WV6, G230A/H232R/R293Q/R71H); test: Stimulation of human STING signalling in THP1-Blue ISG SEAP reporter cell line; type: cell-based; conditions: THP1-Blue ISG cells, 18-20 hours incubation
T1 construct: using human THP1-Blue™ ISG SEAP based reporter cell line (Invivogen); host or cells: THP1-Blue ISG (human monocytic THP-1 derived SEAP reporter line)
Method: Stimulation of Human STING Signalling in THP1 Cell Line
Compounds were tested for their STING activation potential using human THP1-Blue™ ISG SEAP based reporter cell line (Invivogen). Briefly, THP1-Blue ISG cells (100,000 cells/well) in 96 well plate were treated with varying concentrations of test and reference compounds and incubated at 37° C. with 5% CO2 for 18-20 hours. The control untreated cells were also set up. Post incubation, the cell supernatant was tested for SEAP (Secreted Embryonic Alkaline Phosphatase) activity using the QuantiBlue™ substrate reagent (Invivogen). The formation of blue coloured product was quantified by measuring absorbance at wavelength of 620 nm using PheraStar/Tecan reader. The average of duplicate readouts for each data point was plotted in GraphPad prism 6 against the concentration of test or reference compound to calculate EC50 value. The fold of SEAP induction or increase in luminescence at different data points was estimated against the un-stimulated cell control set.

T1 sequence (Q86WV6 whole entry R71H/G230A/H232R/R293Q): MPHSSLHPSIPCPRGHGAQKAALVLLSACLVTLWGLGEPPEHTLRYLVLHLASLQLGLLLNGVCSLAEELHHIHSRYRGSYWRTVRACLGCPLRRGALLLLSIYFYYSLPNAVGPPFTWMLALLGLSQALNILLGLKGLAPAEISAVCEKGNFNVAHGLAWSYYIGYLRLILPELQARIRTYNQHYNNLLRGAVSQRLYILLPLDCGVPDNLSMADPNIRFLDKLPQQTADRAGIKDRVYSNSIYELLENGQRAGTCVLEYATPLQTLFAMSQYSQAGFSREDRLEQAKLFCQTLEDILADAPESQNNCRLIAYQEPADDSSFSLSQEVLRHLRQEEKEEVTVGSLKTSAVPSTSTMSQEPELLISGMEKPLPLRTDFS

Compared with CCn1nc(C)cc1C(=O)Nc1nc2cc(C(N)=O)cc3c2n1C/C=C/Cn1c(NC(=O)c2cc(C)nn2CC)nc2cc(C(N)=O)cc(c21)O[C@H]1CN[C@@H](CO3)C1 [Compound 20, (33R,35R,E)-12,62-bis(1-ethyl-3-methyl-1H-pyrazole-5-carboxamido)-11H,61H-2,5-dioxa-1,6(7,1)-dibenzo[d]imidazola-3(3,5)-pyrrolidinacyclodecaphan-8-ene-15,65-dicarboxamide], CCn1nc(C)cc1C(=O)Nc1nc2cc(C(N)=O)cc3c2n1C/C=C/Cn1c(NC(=O)c2cc(C)nn2CC)nc2cc(C(N)=O)cc(c21)OCC(N1CC[C@@H](O)C1)CO3 [Compound 12, (R,E)-1,15-bis(1-ethyl-3-methyl-1H-pyrazole-5-carboxamido)-8-(3-hydroxypyrrolidin-1-yl)-8,9,16,19-tetrahydro-7H-6,10-dioxa-2,14,15a,19a-tetraazacyclopentadeca[3,2,1-cd:8,9,10-c′d′]diindene-4,12-dicarboxamide] is lower in EC50: 11 to 100 nM for the first, 1 to 10 nM for the second. The second is the more potent here.

Compared with CCn1nc(C)cc1C(=O)Nc1nc2cc(C(N)=O)cc3c2n1C/C=C/Cn1c(NC(=O)c2cc(C)nn2CC)nc2cc(C(N)=O)cc(c21)OCC(N1C2CCC1COC2)CO3 [Compound 2, (E)-8-(3-oxa-8-azabicyclo[3.2.1]octan-8-yl)-1,15-bis(1-ethyl-3-methyl-1H-pyrazole-5-carboxamido)-8,9,16,19-tetrahydro-7H-6,10-dioxa-2,14,15a,19a-tetraazacyclopentadeca[3,2,1-cd:8,9,10-c′d′]diindene-4,12-dicarboxamide], CCn1nc(C)cc1C(=O)Nc1nc2cc(C(N)=O)cc3c2n1C/C=C/Cn1c(NC(=O)c2cc(C)nn2CC)nc2cc(C(N)=O)cc(c21)OCC(N1CCC(O)CC1)CO3 [Compound 22, (E)-1,15-bis(1-ethyl-3-methyl-1H-pyrazole-5-carboxamido)-8-(4-hydroxypiperidin-1-yl)-8,9,16,19-tetrahydro-7H-6,10-dioxa-2,14,15a,19a-tetraazacyclopentadeca[3,2,1-cd:8,9,10-c′d′]diindene-4,12-dicarboxamide] is higher in EC50: 1 to 10 nM for the first, 11 to 100 nM for the second. The first is the more potent here.

CCn1nc(C)cc1C(=O)Nc1nc2cc(C(N)=O)cc3c2n1C/C=C/Cn1c(NC(=O)c2cc(C)nn2CC)nc2cc(C(N)=O)cc(c21)OCC(CN1CCOCC1)CO3 [Compound 16, (E)-1,15-bis(1-ethyl-3-methyl-1H-pyrazole-5-carboxamido)-8-(morpholinomethyl)-8,9,16,19-tetrahydro-7H-6,10-dioxa-2,14,15a,19a-tetraazacyclopentadeca[3,2,1-cd:8,9,10-c′d′]diindene-4,12-dicarboxamide] and CCn1nc(C)cc1C(=O)Nc1nc2cc(C(N)=O)cc3c2n1C/C=C/Cn1c(NC(=O)c2cc(C)nn2CC)nc2cc(C(N)=O)cc(c21)OCC(CCN1CCOCC1)CO3 [Compound 13, (E)-1,15-bis(1-ethyl-3-methyl-1H-pyrazole-5-carboxamido)-8-(2-morpholinoethyl)-8,9,16,19-tetrahydro-7H-6,10-dioxa-2,14,15a,19a-tetraazacyclopentadeca[3,2,1-cd:8,9,10-c′d′]diindene-4,12-dicarboxamide] fall in the same range of EC50: 11 to 100 nM for the first, 11 to 100 nM for the second.

CCn1nc(C)cc1C(=O)Nc1nc2cc(C(N)=O)cc3c2n1C/C=C/Cn1c(NC(=O)c2cc(C)nn2CC)nc2cc(C(N)=O)cc(c21)OCC(N1CC[C@@H](OC)C1)CO3 [Compound 35, (R,E)-1,15-bis(1-ethyl-3-methyl-1H-pyrazole-5-carboxamido)-8-(3-methoxypyrrolidin-1-yl)-8,9,16,19-tetrahydro-7H-6,10-dioxa-2,14,15a,19a-tetraazacyclopentadeca[3,2,1-cd:8,9,10-c′d′]diindene-4,12-dicarboxamide] and CCn1nc(C)cc1C(=O)Nc1nc2cc(C(N)=O)cc3c2n1C/C=C/Cn1c(NC(=O)c2cc(C)nn2CC)nc2cc(C(N)=O)cc(c21)OCC(N1CC[C@H](OC)C1)CO3 [Compound 6, (S,E)-1,15-bis(1-ethyl-3-methyl-1H-pyrazole-5-carboxamido)-8-(3-methoxypyrrolidin-1-yl)-8,9,16,19-tetrahydro-7H-6,10-dioxa-2,14,15a,19a-tetraazacyclopentadeca[3,2,1-cd:8,9,10-c′d′]diindene-4,12-dicarboxamide] fall in the same range of EC50: 1 to 10 nM for the first, 1 to 10 nM for the second.

First: CCn1nc(C)cc1C(=O)Nc1nc2cc(C(N)=O)cc3c2n1C/C=C/Cn1c(NC(=O)c2cc(C)nn2CC)nc2cc(C(N)=O)cc(c21)OCC(N1CCOCC1)CO3 [Compound 3, (E)-1,15-bis(1-ethyl-3-methyl-1H-pyrazole-5-carboxamido)-8-morpholino-8,9,16,19-tetrahydro-7H-6,10-dioxa-2,14,15a,19a-tetraazacyclopentadeca[3,2,1-cd:8,9,10-c′d′]diindene-4,12-dicarboxamide]
Second: CCn1nc(C)cc1C(=O)Nc1nc2cc(C(N)=O)cc3c2n1C/C=C/Cn1c(NC(=O)c2cc(C)nn2CCF)nc2cc(C(N)=O)cc(c21)OCC(N1CCOCC1)CO3 (stereo not drawn) [Compound 17, (E)-15-(1-ethyl-3-methyl-1H-pyrazole-5-carboxamido)-1-(1-(2-fluoroethyl)-3-methyl-1H-pyrazole-5-carboxamido)-8-morpholino-8,9,16,19-tetrahydro-7H-6,10-dioxa-2,14,15a,19a-tetraazacyclopentadeca[3,2,1-cd:8,9,10-c′d′]diindene-4,12-dicarboxamide]
The EC50 of the first is lower: 1 to 10 nM for the first, 11 to 100 nM for the second.

Compared with CCn1nc(C)cc1C(=O)Nc1nc2cc(C(N)=O)cc3c2n1C/C=C/Cn1c(NC(=O)c2cc(C)nn2CC)nc2cc(C(N)=O)cc(c21)OCC(N1CCC(F)(F)CC1)CO3 [Compound 4, (E)-8-(4,4-difluoropiperidin-1-yl)-1,15-bis(1-ethyl-3-methyl-1H-pyrazole-5-carboxamido)-8,9,16,19-tetrahydro-7H-6,10-dioxa-2,14,15a,19a-tetraazacyclopentadeca[3,2,1-cd:8,9,10-c′d′]diindene-4,12-dicarboxamide], CCn1nc(C)cc1C(=O)Nc1nc2cc(C(N)=O)cc3c2n1C/C=C/Cn1c(NC(=O)c2cc(C)nn2CC)nc2cc(C(N)=O)cc(c21)OCC(N1CC[C@H](O)C1)CO3 [Compound 11, (S,E)-1,15-bis(1-ethyl-3-methyl-1H-pyrazole-5-carboxamido)-8-(3-hydroxypyrrolidin-1-yl)-8,9,16,19-tetrahydro-7H-6,10-dioxa-2,14,15a,19a-tetraazacyclopentadeca[3,2,1-cd:8,9,10-c′d′]diindene-4,12-dicarboxamide] is lower in EC50: 11 to 100 nM for the first, 1 to 10 nM for the second.

First: CCn1nc(C)cc1C(=O)Nc1nc2cc(C(N)=O)cc3c2n1C/C=C/Cn1c(NC(=O)c2cc(C)nn2CC)nc2cc(C(N)=O)cc(c21)OCC(c1ccccn1)CO3 [Compound 36, (E)-1,15-bis(1-ethyl-3-methyl-1H-pyrazole-5-carboxamido)-8-(pyridin-2-yl)-8,9,16,19-tetrahydro-7H-6,10-dioxa-2,14,15a,19a-tetraazacyclopentadeca[3,2,1-cd:8,9,10-c′d′]diindene-4,12-dicarboxamidexamide]
Second: CCn1nc(C)cc1C(=O)Nc1nc2cc(C(N)=O)cc3c2n1C/C=C/Cn1c(NC(=O)c2cc(C)nn2CC)nc2cc(C(N)=O)cc(c21)OCC(n1ccnc1)CO3 [Compound 19, (E)-1,15-bis(1-ethyl-3-methyl-1H-pyrazole-5-carboxamido)-8-(1H-imidazol-1-yl)-8,9,16,19-tetrahydro-7H-6,10-dioxa-2,14,15a,19a-tetraazacyclopentadeca[3,2,1-cd:8,9,10-c′d′]diindene-4,12-dicarboxamide]
The EC50 of the first is higher: 11 to 100 nM for the first, 1 to 10 nM for the second. The second is the more potent here.

CCn1nc(C)cc1C(=O)Nc1nc2cc(C(N)=O)cc3c2n1C/C=C/Cn1c(NC(=O)c2cc(C)nn2CC)nc2cc(C(N)=O)cc(c21)OCC(N1C[C@@H](C)O[C@@H](C)C1)CO3 [Compound 5, (E)-8-((2S,6R)-2,6-dimethylmorpholino)-1,15-bis(1-ethyl-3-methyl-1H-pyrazole-5-carboxamido)-8,9,16,19-tetrahydro-7H-6,10-dioxa-2,14,15a,19a-tetraazacyclopentadeca[3,2,1-cd:8,9,10-c′d′]diindene-4,12-dicarboxamide] and CCn1nc(C)cc1C(=O)Nc1nc2cc(C(N)=O)cc3c2n1C/C=C/Cn1c(NC(=O)c2cc(C)nn2CC)nc2cc(C(N)=O)cc(c21)OCC(N1CCC(C#N)C1)CO3 (stereo not drawn) [Compound 26, (E)-8-(3-cyanopyrrolidin-1-yl)-1,15-bis(1-ethyl-3-methyl-1H-pyrazole-5-carboxamido)-8,9,16,19-tetrahydro-7H-6,10-dioxa-2,14,15a,19a-tetraazacyclopentadeca[3,2,1-cd:8,9,10-c′d′]diindene-4,12-dicarboxamide] fall in the same range of EC50: 1 to 10 nM for the first, 1 to 10 nM for the second.

CCn1nc(C)cc1C(=O)Nc1nc2cc(C(N)=O)cc3c2n1C/C=C/Cn1c(NC(=O)c2cc(C)nn2CC)nc2cc(C(N)=O)cc(c21)OCC(C1CCN(C)CC1)CO3 [Compound 9, (E)-1,15-bis(1-ethyl-3-methyl-1H-pyrazole-5-carboxamido)-8-(1-methylpiperidin-4-yl)-8,9,16,19-tetrahydro-7H-6,10-dioxa-2,14,15a,19a-tetraazacyclopentadeca[3,2,1-cd:8,9,10-c′d′]diindene-4,12-dicarboxamide] was tested, and the EC50 was 11 to 100 nM.

system: IFNβ; test: Cytokine (IFNβ) secretion in serum samples from CT-26 tumor bearing BALB/c mice; type: in vivo, mouse; conditions: serum of CT-26 tumor-bearing BALB/c mice, 0.5 mg/kg, 3.5 h
Method: Quantification of the Cytokine Secretion in Serum Samples from the CT-26 Tumor Bearing BALB/c Mice
CT-26 tumor-bearing animals were administered with test compounds at the dose of 0.5 mg/kg, in a dose-volume of 5 ml/kg. Serum samples were collected at designated time points (3.5 h) and frozen at −80° C. till further estimation. Mouse serum samples were diluted appropriately with dilution buffer before estimation of IFNβ utilizing commercially available kits (VeriKine Mouse IFN Beta ELISA, PBL assay science, Catalog No 42400-2). Raw data values were corrected with the dilution factor and finally expressed in pg/mL.

CCn1nc(C)cc1C(=O)Nc1nc2cc(C(N)=O)cc3c2n1C/C=C/Cn1c(NC(=O)c2cc(C)nn2CC)nc2cc(C(N)=O)cc(c21)OCC(N1C2CCC1COC2)CO3 [Compound 2, (E)-8-(3-oxa-8-azabicyclo[3.2.1]octan-8-yl)-1,15-bis(1-ethyl-3-methyl-1H-pyrazole-5-carboxamido)-8,9,16,19-tetrahydro-7H-6,10-dioxa-2,14,15a,19a-tetraazacyclopentadeca[3,2,1-cd:8,9,10-c′d′]diindene-4,12-dicarboxamide] was tested, and the IFNβ secretion was 28305 pg/mL.
